The structures appear in SMILES notation. pIC50: −log10 of the molar value. Structures can show the parent of a compound that is named as a salt.

One experiment deals with A549 human lung epithelium cell line. Description: RANTES production in response to TNF-α from A549 cells. Type of experiment: cell-based. As to conditions: Homo sapiens, A549, A549 cells, 100 ng/ml TNF-α, read-out: Cellular activity grade (A549) (Cellular IC50). The gist of the method: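 Cells (4×10^4/well) in D-MEM/10% FCS preincubated 1 h at 37 °C with compound in 1% DMSO, then stimulated with 100 ng/ml TNF-α for 24 h. Supernatant RANTES quantified by Eu-labelled sandwich immunoassay (time-resolved fluorescence, ex 340/em 615 nm) against recombinant human RANTES standard.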
Consider `N#Cc1c(C2CCCNC2)cc(-c2ccccc2O)nc1N` (centres unmarked) [Example 1-1, 2-amino-6-(2-hydroxyphenyl)-4-(3-piperidinyl)-nicotinonitrile hydrochloride], for which the negative logarithm of the IC50 (pIC50) was greater than 6.00.

In the case of `N#Cc1c(C2CCNC2)cc(-c2ccccc2O)nc1N` (centres unmarked) [Example 1-2, 2-amino-6-(2-hydroxyphenyl)-4-(3-pirrolidinyl)nicotinonitrile trifluoroacetate], the pIC50 was greater than 6.00.

In the case of `N#Cc1c(N)nc(-c2ccccc2O)c(F)c1C1CCCNC1` (centres unmarked) [Example 1-4, 2-amino-5-fluoro-6-(2-hydroxyphenyl)-4-(3-piperidinyl)-nicotinonitrile trifluoroacetate], the negative-log IC50 (pIC50) is 5.00 to 6.00.

As to `N#Cc1c(C2CCCNC2)cc(-c2ccccc2O)nc1NCc1ccccc1` (centres unmarked) [Example 4-1, 2-(benzylamino)-6-(2-hydroxyphenyl)-4-(3-piperidinyl)nicotinonitrile hydrochloride], the negative-log IC50 (pIC50) was 5.00 to 6.00. Still for that read-out and setting: the result for `NC(Cc1ccccc1)c1cc(-c2ccccc2O)nc2c1COC(=O)N2` (centres unmarked) [Example 18-4/18-5, 5-(1-Amino-2-phenyl-ethyl)-7-(2-hydroxy-phenyl)-1,4-dihydro-pyrido[2,3-d][1,3]oxazin-2-one hydrochloride] reads 5.00 to 6.00. Same read-out and setting: the result for `O=C1Nc2nc(-c3ccccc3O)cc(C3=CCCNC3)c2CO1` [Example 18-6] reads greater than 6.00. The same measure, in the same setting: the result for `Nc1nc(-c2c(O)cccc2OCc2ccccc2)cc2c1CN1CCCC2C1` (centres unmarked) [Example 20-1, 2-(6-amino-5,9-diazatricyclo[7.3.1.02,7]trideca-2,4,6-trien-4-yl)-3-(benzyloxy)phenol hydrochloride] reads less than 5.00; that for `Nc1nc(-c2ccccc2O)cc2c1CN[C@@H]2Cc1ccccc1` [Example 20-2, 2-[(1R)-4-amino-1-benzyl-2,3-dihydro-1H-pyrrolo[3,4-d]pyridin-6-yl]phenol hydrochloride], 5.00 to 6.00. For the molecule `Nc1nc(-c2c(O)cccc2OCC2CC2)cc(C2CCCNC2)c1CSc1ccccc1` (centres unmarked) [Example 21-1, 2-[6-amino-5-[(phenylsulfanyl)methyl]-4-(3-piperidinyl)-2-pyridinyl]-3-(cyclopropylmethoxy)phenol hydrochloride], the negative logarithm of the IC50 (pIC50) was 5.00 to 6.00. Regarding `Nc1nc(-c2c(O)cccc2OCC2CC2)cc(C2CCNCC2)c1Cn1ccnc1` [Example 21-2, 2-[6-amino-5-(1H-imidazol-1-ylmethyl)-4-(4-piperidinyl)-2-pyridinyl]-3-(cyclopropylmethoxy)phenol hydrochloride], the negative-log IC50 (pIC50) was greater than 6.00.

For the molecule `Nc1nc(-c2c(O)cccc2OCC2CC2)cc(C2CCNCC2)c1COc1ccccc1` [Example 21-3, 2-[6-amino-5-(phenoxymethyl)-4-(4-piperidinyl)-2-pyridinyl]-3-(cyclopropylmethoxy)phenol hydrochloride], the negative logarithm of the IC50 (pIC50) is greater than 6.00.

As to `Nc1nc(-c2c(O)cccc2OCC2CC2)cc(C2CCNCC2)c1CON1C(=O)CCC1=O` [Example 21-4, 1-{[2-amino-6-[2-(cyclopropylmethoxy)-6-hydroxyphenyl]-4-(4-piperidinyl)-3-pyridinyl]methoxy}-2,5-pyrrolidinedione hydrochloride], the negative logarithm of the IC50 (pIC50) was greater than 6.00. Same read-out and setting: the result for `O=C1NCc2c(C3CCCNC3)cc(-c3ccccc3O)nc2N1` (centres unmarked) [Example 22-1, 7-(2-hydroxyphenyl)-5-(3-piperidinyl)-3,4-dihydropyrido[2,3-d]pyrimidin-2(1H)-one hydrochloride] reads 5.00 to 6.00.

Turning to `O=C1NCc2c(C3CCCNC3)cc(-c3c(O)cccc3OCC3CC3)nc2N1` (centres unmarked) [Example 22-2, 7-[2-(cyclopropylmethoxy)-6-hydroxyphenyl]-5-(3-piperidinyl)-3,4-dihydro-1H-pyrido[2,3-d]-pyrimidin-2-one hydrochloride], the pIC50 is greater than 6.00. The same measure, in the same setting: the result for `O=C1NCc2c(C3CCNCC3)cc(-c3c(O)cccc3OCC3CC3)nc2N1` [Example 22-3, 7-[2-(cyclopropylmethoxy)-6-hydroxyphenyl]-5-(4-piperidinyl)-3,4-dihydro-1H-pyrido[2,3-d]pyrimidin-2-one hydrochloride] reads greater than 6.00; that for `O=S1(=O)NCc2c(C3CCCNC3)cc(-c3ccccc3O)nc2N1` (centres unmarked) [Example 22-5, 2-[2,2-dioxido-5-(3-piperidinyl)-3,4-dihydro-1H-pyrido[2,3-c][1,2,6]thiadiazin-7-yl]phenol hydrochloride], 5.00 to 6.00; that for `CC(=O)NCc1c(C2CCCNC2)cc(-c2c(O)cccc2OCC2CC2)nc1N` (centres unmarked) [Example 23-1, N-{[2-amino-6-[2-(cyclopropylmethoxy)-6-hydroxyphenyl]-4-(3-piperidinyl)-3-pyridinyl]methyl}acetamide hydrochoride], greater than 6.00.

As for `CCOC(=O)NCc1c(C2CCCNC2)cc(-c2c(O)cccc2OCC2CC2)nc1N` (centres unmarked) [Example 23-2, ethyl [2-amino-6-[2-(cyclopropylmethoxy)-6-hydroxyphenyl]-4-(3-piperidinyl)-3-pyridinyl]methylcarbamate hydrochloride], the negative logarithm of the IC50 (pIC50) was greater than 6.00. Still for that read-out and setting: the result for `Nc1nc(-c2c(O)cccc2OCC2CC2)cc(C2CCCNC2)c1CNC(=O)NC1CCCCC1` (centres unmarked) [Example 23-3, N-{[2-amino-6-[2-(cyclopropylmethoxy)-6-hydroxyphenyl]-4-(3-piperidinyl)-3-pyridinyl]methyl}-N′-cyclohexylurea hydrochloride] reads greater than 6.00. On the same count and under the same terms, the value for `CC(=O)N1Cc2c(C3CCCNC3)cc(-c3c(O)cccc3OCC3CC3)nc2NC1=O` (centres unmarked) [Example 24-1, 3-acetyl-7-[2-(cyclopropylmethoxy)-6-hydroxyphenyl]-5-(3-piperidinyl)-3,4-dihydropyrido[2,3-d]pyrimidin-2(1H)-one hydrochloride] was greater than 6.00; that for `Oc1cccc(OCC2CC2)c1-c1cc(C2CCCNC2)c2c(n1)NCCC2` (centres unmarked) [Example 28-01, 3-(cyclopropylmethoxy)-2-[4-(3-piperidinyl)-5,6,7,8-tetrahydro-1,8-naphthyridin-2-yl]phenol] was greater than 6.00; that for `Nc1cc2c(C3CCCNC3)cc(-c3c(O)cccc3OCC3CC3)nc2[nH]c1=O` (centres unmarked) [Example 29-01, 3-amino-7-[2-(cyclopropylmethoxy)-6-hydroxyphenyl]-5-(3-piperidinyl)-1,8-naphthyridin-2(1H)-one hydrochloride] was greater than 6.00. The same measure, in the same setting: the value for `O=C(Nc1cc2c(C3CCCNC3)cc(-c3c(O)cccc3OCC3CC3)nc2[nH]c1=O)c1ccccc1` (centres unmarked) [Example 29-2, N-[7-[2-(cyclopropylmethoxy)-6-hydroxyphenyl]-2-oxo-5-(3-piperidinyl)-1,2-dihydro-1,8-naphthyridin-3-yl]benzamide hydrochloride] was 5.00 to 6.00; that for `CC(=O)Nc1cc2c(C3CCCNC3)cc(-c3c(O)cccc3OCC3CC3)nc2[nH]c1=O` (centres unmarked) [Example 29-3, N-[7-[2-(cyclopropylmethoxy)-6-hydroxyphenyl]-2-oxo-5-(3-piperidinyl)-1,2-dihydro-1,8-naphthyridin-3-yl]acetamide hydrochloride] was greater than 6.00; that for `O=C(O)c1cc2c(C3CCCNC3)cc(-c3c(O)cccc3OCC3CC3)nc2[nH]c1=O` (centres unmarked) [Example 30-1, 7-(2-cyclopropylmethoxy-6-hydroxy-phenyl)-2-oxo-5-piperidin-3-yl-1,2-dihydro[1,8]naphthyridine-3-carboxylic acid hydrochloride] was 5.00 to 6.00. For the molecule `CCCNC(=O)c1cc2c(C3CCCNC3)cc(-c3c(O)cccc3OCC3CC3)nc2[nH]c1=O` (centres unmarked) [Example 31-1, 7-[2-(cyclopropylmethoxy)-6-hydroxyphenyl]-2-oxo-5-(3-pipedinyl)-N-propyl-1,2-dihydro-1,8-naphthyridine-3-carboxamide], the pIC50 is greater than 6.00. As to `CS(=O)(=O)NC(=O)c1cc2c(C3CCCNC3)cc(-c3c(O)cccc3OCC3CC3)nc2[nH]c1=O` (centres unmarked) [Example 31-2, N-{[7-[2-(cyclopropylmethoxy)-6-hydroxyphenyl]-2-oxo-5-(3-piperidinyl)-1,2-dihydro-1,8-naphthyridin-3-yl]carbonyl}methanesulfonamide hydrochloride], the negative-log IC50 (pIC50) was 5.00 to 6.00.

Consider `Nc1ncnc2nc(-c3c(O)cccc3OCC3CC3)cc(C3CCCNC3)c12` (centres unmarked) [Example 32-1, 2-[4-amino-5-(3-piperidinyl)pyrido[2,3-d]pyrimidin-7-yl]-3-(cyclopropylmethoxy)phenol hydrochloride], for which the pIC50 is 5.00 to 6.00.

For the molecule `N#Cc1ccc(-c2ccccc2O)nc1N` [Example 33-1, 2-amino-6-(2-hydroxyphenyl)nicotinonitrile], the pIC50 was 5.00 to 6.00.

For `N#Cc1c(N2CCOCC2)cc(-c2ccccc2O)nc1N` [Example 34-1, 2-amino-6-(2-hydroxyphenyl)-4-(4-morpholinyl)nicotinonitrile], the pIC50 was less than 5.00. Consider `N#Cc1c(N2CCC(C(N)=O)CC2)cc(-c2ccccc2O)nc1N` [Example 34-2, 1-[2-amino-3-cyano-6-(2-hydroxyphenyl)-4-pyridinyl]-4-piperidinecarboxamide], for which the negative logarithm of the IC50 (pIC50) was less than 5.00.

On to `N#Cc1c(N2CCCC(N)C2)cc(-c2ccccc2O)nc1N` (centres unmarked) [Example 34-3, 2-amino-4-(3-amino-1-piperidinyl)-6-(2-hydroxyphenyl)nicotinonitrile hydrochloride], for which the pIC50 was 5.00 to 6.00. On the same count and under the same terms, the result for `N#Cc1c(NC2CCCNC2)cc(-c2ccccc2O)nc1N` (centres unmarked) [Example 34-4, 2-amino-6-(2-hydroxyphenyl)-4-(3-piperidinylamino)nicotinonitrile hydrochloride] reads greater than 6.00. On to `NCCNc1cc(-c2c(O)cccc2OCC2CC2)nc2c1COC(=O)N2` [Example 35-1, 5-[(2-aminoethyl)amino]-7-[2-(cyclopropylmethoxy)-6-hydroxyphenyl]-1,4-dihydro-2H-pyrido[2,3-d][1,3]oxazin-2-one hydrochloride], for which the negative logarithm of the IC50 (pIC50) is greater than 6.00.

For another experiment, the system named is Jurkat T cells. Kind of experiment: IL-2 production in Jurkat T cells in response to anti-CD3/anti-CD28 antibody stimulation. Type of experiment: cell-based. As to conditions: Homo sapiens, read-out: Cellular activity grade (Jurkat) (Cellular IC50).
On to `N#Cc1c(C2CCCNC2)cc(-c2ccccc2O)nc1N` (centres unmarked) [Example 1-1, 2-amino-6-(2-hydroxyphenyl)-4-(3-piperidinyl)-nicotinonitrile hydrochloride], for which the pIC50 was greater than 6.00. Still for that read-out and setting: the value for `N#Cc1c(C2CCNC2)cc(-c2ccccc2O)nc1N` (centres unmarked) [Example 1-2, 2-amino-6-(2-hydroxyphenyl)-4-(3-pirrolidinyl)nicotinonitrile trifluoroacetate] was 5.00 to 6.00.

`N#Cc1c(N)nc(-c2ccccc2O)c(F)c1C1CCCNC1` (centres unmarked) [Example 1-4, 2-amino-5-fluoro-6-(2-hydroxyphenyl)-4-(3-piperidinyl)-nicotinonitrile trifluoroacetate]: the pIC50 was 5.00 to 6.00.

Regarding `N#Cc1c(C2CCCNC2)cc(-c2ccccc2O)nc1NCc1ccccc1` (centres unmarked) [Example 4-1, 2-(benzylamino)-6-(2-hydroxyphenyl)-4-(3-piperidinyl)nicotinonitrile hydrochloride], the negative logarithm of the IC50 (pIC50) is 5.00 to 6.00.

In general, pIC50 refers to −log10 of the IC50, conventionally taken in molar units.

Source of the values: patent US6984649B1, “Pyridine derivatives” (Bayer Aktiengesellschaft, priority 2000, dated 2006).
